{"source": "paper PMC9256669", "about": "“Monomethyl auristatin antibody and peptide drug conjugates for trimodal cancer chemo-radio-immunotherapy” (Nature Communications, 2022)", "key": {"MOC2": {"test_system": "MOC2", "assay": "Cytotoxicity, Alamar Blue assay", "format": "cell-based, murine", "conditions": "MOC2, 72 h drug exposure, one value per biological replicate, read-out: IC50 values", "method": "Murine colorectal (MC38 (ENH204-FP)) cancer cell lines were obtained from Kerafast. Murine head and neck MOC1 and MOC2 were generously provided by Dr. R. Uppaluri. CAL27 PIK3CA H1047R expressing cells and 4MOSC1 cells were generated in Dr. Gutkind’s laboratory and previously characterized[42],[55]. […] MC38 cells were cultured in DMEM supplemented with 10% FBS, 1 mM sodium pyruvate (Gibco), 1% non-essential amino acids (Gibco), and 10 mM HEPES (Gibco). MOC1 and MOC2 cells were cultured in IMDM (Lonza)/F-12K nutrient mixture at a 2:1 mixture with 5% FBS, 5 ng/ml EGF (EMD Millipore), 400 ng/ml hydrocortisone (Sigma), and […] insulin (Sigma). On receipt, each cell line was expanded, cryopreserved as low passage stocks, and routinely tested for mycoplasma. Cisplatin (Enzo Biosciences), paclitaxel (Sigma), and MMAE (Concortis) were reconstituted in DMSO. […] Clinical grade cetuximab (Erbitux, Lilly Medical) was obtained from UCSD Moores Cancer Center Pharmacy.\nCells were plated in 96-well plates and exposed to a drug concentration range for 72 h. Alamar Blue was added to the cells and allowed to incubate for 2–4 h at 37 °C. Plates were analyzed using a plate reader with fluorescence measured at 560 nm. Fractional survival was normalized to untreated control cell fluorescent values. Drug IC50 was calculated using Prism software (GraphPad, La Jolla, CA). Cell viability, cytotoxicity and apoptosis were also measured by ApoTox-Glo Triplex Assay (Promega).\nmeasured by Alamar Blue assay. For Alamar Blue assay cytotoxicity, we measured cell viability at 72 hr of […]"}, "B16 cells": {"test_system": "B16 cells", "assay": "Clonogenic survival with MMAE and 2 Gy (SF2)", "format": "cell-based, murine", "parameters": "key to SF2: fraction surviving 2 Gy relative to non-irradiated cells", "conditions": "for SF2: Figure 3d, six single replicates", "method": "Cells were treated with MMAE for 24 h and then irradiated with 2 Gy. […] Following IR, cells were counted, re-plated at varying cell numbers in drug free media. 10–14 days after initial seeding formed colonies were methanol fixed, stained with crystal violet, and counted. Surviving fraction at 2 Gy (SF2) was calculated as the fraction of cells surviving 2 Gy compared to non-irradiated cells."}, "[1]": {"test_system": "orthotopic oral 4MOSC1 tumors", "assay": "Trimodal therapy: ACPP-MMAE, IR and anti-PD-1 antibody", "format": "in vivo, C57BL/6 mice", "conditions": "Figure 5c; individual mice, one line per mouse", "excerpt": "(§1) Orthotopic tongue xenograft tumors were established in 6-week-old NOD SCID mice by injecting 150,000 CAL27 parental (WT) or PIK3CA H1047R-expressing cells. […] On the last day of tumor xenograft measurements, mice were euthanized, tongues resected, imaged, and fixed. […] IR was delivered as 2 parallel opposed fields."}, "[2]": {"assay": "Mouse body weight (safety of MMAE with IR, with or without anti-PD-1)", "conditions": "ACPP-MMAE and IR", "excerpt": "LL/2 cells treated with dose range of MMAE overnight and then […] in drug free media for 7-10 days to allow for visualized colonies to form.\nStatistical significances calculated using one-way ANOVA with Tukey’s multiple comparisons test. 0.9 b) Cell cycle analysis […]\nof MMAE treated LL/2 cells, mean ± SD, n=2. […]\nexperiments. c) Clonogenic survival of LL/2 cells treated with MMAE and 2 Gy (SF2). Cell Days viability normalized to non-irradiated cells for each drug condition and plotted as mean fractional survival ± SEM, n=6. Statistical significances calculated using one-way ANOVA with Sidak’s multiple comparisons test. d) Tumor volumes (n=10) and mouse body weights (n=5) of mice from experiments in Fig. 3e. Tumor volumes plotted as mean volume of surviving mice ± SEM.\nMouse body weight were normalized to each mouse’s weight on day 0, i.e. tumor implantation.\nData plotted as mean fractional body weight ± SEM. e) Mouse body weights of mice (n=5) from experiments in Fig. 4h were normalized to each mouse’s weight on day of tumor implantation.\nData is plotted as individual normalized body weights. f) Mouse body weights of mice from experiments in Fig. 5e, f were normalized to each mouse’s weight on day of tumor implantation.\n(§2) Source data are provided in Source Data file."}, "[3]": {"assay": "Blood clearance of Cy5-labeled CDX3379-MMAE (blood Cy5)", "format": "in vivo, Nude mice", "conditions": "immune-deficient and immune-competent mice, i.v. Cy5-labeled CDX3379-MMAE, Cy5 as surrogate marker", "method": "All animal work was done in compliance with the University of California San Diego Institutional Animal Use and Care Committee under protocol #S15290. Mice were housed in individually ventilated and micro-isolator cages supplied with acidified water and fed 5053 irradiated PicoLab Rodent Diet 20. Temperature for laboratory mice in housing was 18–23 °C with humidity 40–60%. Housing room is maintained on a 12-h light/dark cycle. […] For imaging, mice were anesthetized (1:1 mixture of 100 mg/ml of ketamine and 5 mg/ml of midazolam). Animals were imaged using a Maestro Small Animal Imager (CRI) with excitation filter of 607/36 and 633 nm long pass emission filter with dichroic filter tuned to 670 nm for Cy5 images only. Imaging was done both with skin on and after skin removal to decrease autofluorescence and scattering. Exposure time for Cy5 signal capture for tumor models was as follows: CAL27 for 800 ms, MOC1 for 200 ms and MOC2 for 1500 ms."}, "[4]": {"test_system": "CAL27 parental (WT) tumors", "assay": "Orthotopic tongue tumor xenograft therapy", "format": "in vivo, human cells in NOD SCID mice", "conditions": "single 2.5 nmole injection", "excerpt": "as §1, with “fields. […]” for “fields.”\n(§3) Tumor cells Ab/ADC Ab/ADC CDX3379-MMAE\n(§4) Supplementary Figure 7: CDX3379-MMAE ADC efficacy in tumor xenografts.\n(§5) CAL27 parental (WT) or HER3 resistant (PIK3CA H1047R) tumor xenografts established in murine tongues on day 0. a) On day 7, mice i.v. injected with 2.5 nmoles […]\n(§6) On the last day of tumor measurement\n(§7) (day 16 for WT, day 14 for PIK3CA H1047R tumors), tongues resected, fixed and sectioned. Tissues stained for Ki-67 (Abcam, ab16667) by IHC and counterstained with hematoxylin. Data is representative of 6 independent tumors per tumor cell line and treatment. b) Mice with orthotopic tongue CAL27 PIK3CA H1047R tumors were […]\n(§8) MMAE ADC on day 6 and day 8 (n= 6 tumors/group). On the last day of tumor measurements, tongues were resected, fixed, longitudinally sectioned and H&E stained.\nas §2\n(§9) (also on this page, place not known: CAL27-WT CAL27-Resistant UntreatedCDX3379CDX3379 -MMAE 07142128 volume (mm3) Tumor tipTongue a)On i.v.injected)"}, "[5]": {"test_system": "CAL27 resistant (PIK3CA H1047R) tumors", "assay": "Orthotopic tongue tumor xenograft therapy", "format": "in vivo, human cells in NOD SCID mice", "conditions": "PIK3CA H1047R-expressing CAL27 orthotopic tongue tumors", "excerpt": "as §1, with “fields. […]” for “fields.”\nas §3, §4, §5, §6, §7, §8, §2, §9"}}, "note": "“And” between values parts separate entries of the source, which are not always exact repeats. Equal values may be shown once. Non-standard residues stand in square brackets, D forms with d. Residues, ends and D or L forms follow the SMILES beside them. *: point of attachment. Dolaproine = CO[C@@H]([C@@H]1CCCN1)[C@@H](C)C(=O)O; Dil = CC[C@H](C)[C@H](NC)[C@@H](CC(=O)O)OC; X1 = C[C@@H](N*)[C@@H](O)c1ccccc1; NMeV = CN[C@H](C(=O)O)C(C)C", "data": [{"compound": "CC[C@H](C)[C@@H]([C@@H](CC(=O)N1CCC[C@H]1[C@H](OC)[C@@H](C)C(=O)N[C@H](C)[C@@H](O)c1ccccc1)OC)N(C)C(=O)[C@@H](NC(=O)[C@@H](NC)C(C)C)C(C)C", "note": "[MMAE, monomethyl auristatin E] (H-[NMeV]V[Dil][Dolaproine]-X1)", "values": [{"measurement": "IC50", "setting": "MOC2", "value": "9.29 nM and 11.1 nM"}, {"measurement": "SF2", "setting": "B16 cells; MMAE 1 nM with 2 Gy", "value": "0.93 and 0.7 and 0.72 and 0.83 and 0.98"}, {"measurement": "SF2", "setting": "B16 cells; MMAE 2 nM with 2 Gy", "value": "0.57 and 0.61 and 0.48 and 0.63 and 0.74"}, {"measurement": "SF2", "setting": "B16 cells; MMAE 3 nM with 2 Gy", "value": "0.68 and 0.71 and 0.65 and 0.5 and 0.56"}, {"measurement": "radiosensitization, clonogenic cell death", "setting": "B16 cells; murine tumor cells, single nanomolar doses of MMAE, 2 Gy", "value": "sensitized murine tumor cells to IR-mediated clonogenic cell death"}]}, {"compound": "cyclo(RGD)fc-MC-HN-peg8-e9-oPLGC(Me)AG-r9-c-(MC-VC-PABC-MMAE)-CONH2 [ACPP-MMAE]", "values": [{"measurement": "Mouse survival: status at the day given (Mouse dead = 1, Mouse alive = 0)", "setting": "[1]", "value": 1}, {"measurement": "adverse effects on mouse well-being by body weight", "setting": "[2]", "value": "no adverse effects"}]}, {"compound": "CDX3379-MMAE: anti-HER3 antibody CDX3379 with 4 MMAE per antibody via MC-VC-PABC linker, labeled with Cy5", "values": [{"measurement": "time at which blood Cy5 signal returned to background fluorescence", "setting": "[3]", "value": "≤ 7", "unit": "days"}, {"measurement": "tumor growth (tumor volume, Ki-67)", "setting": "[4]", "value": "further enhanced"}, {"measurement": "tumor growth", "setting": "[5]", "value": "significant growth delay"}]}]}
